# Data as given in publication PMC7823652 (Viruses, 2020).
# Like-named read-outs stand apart in the source and are kept apart here.
# How the values were obtained:
# [1] = system: ZIKV; assay: Image-based phenotypic antiviral screen in ZIKV-infected U87 cells; type: cell-based, Zika virus (strain H/PF/2013); details: for inhibition at 10 µM: Zika virus, U-87 MG
# [2] = Screen cytotoxicity by nuclei count in ZIKV-infected U87 cells; type: cell-based; details: human, ZIKV-infected U87 cells
# [3] = system: HAZV; assay: microbe, parasite or virus in culture; type: cell-based, Hazara virus (isolate JC280); details: for inhibition at 10 µM: Hazara virus, SW13, 24 h
# [4] = system: ZIKV; assay: Antiviral dose-response in ZIKV-infected U87 cells (infected cells, viral titer); type: cell-based, Zika virus (strain H/PF/2013); details: Zika virus, U-87 MG; for IC50: ZIKV; for EC50: U87, ZIKV MOI 1, 48 h
# [5] = system: ZIKV; assay: Antiviral dose-response in ZIKV-infected Vero cells; type: cell-based, Zika virus (strain H/PF/2013); details: Zika virus
# [6] = system: U87 cells; assay: Cell viability by nuclei count in ZIKV-infected U87 cells; type: cell-based, Human
# [7] = system: Vero cells; assay: Cell viability by nuclei count in ZIKV-infected Vero cells; type: cell-based, African Green Monkey
# [8] = Cell viability assay (Resazurin), uninfected U87 cells; type: cell-based, Human; details: human, read-out: Viability CC50 [µM] (95%-CI)
# [9] = system: U87 cells; assay: as above; type: cell-based, Human; details: Homo sapiens, U-87 MG; U87, Resazurin, all measured time points (24, 48 or 72 h); read-out: IC50 (toxicity profile, cellular viability)
# [10] = in vitro; type: cell-based; details: African green monkey
# [11] = system: ZIKV; assay: ZIKV-induced cytopathic effect in U87 cells (immunofluorescence imaging); type: cell-based, Zika virus (strain H/PF/2013); details: U87, ZIKV MOI 1, 10 μM TH6744, 24, 48 or 72 h
# [12] = system: ZIKV; assay: End-point dilution assay by CPE, ZIKV-infected Vero cells; type: cell-based, Zika virus (strain H/PF/2013); details: ZIKV MOI 0.1, increasing doses, 24 h
# [13] = system: ZIKV; assay: ZIKV infection (NS1 intensity) and viral titer in human cerebral organoids; type: cell-based, Zika virus (strain H/PF/2013); details: ZIKV 2 × 10^4 particles/organoid, 5 μM
# [14] = system: ZIKV; assay: Time-of-addition assay in ZIKV-infected U87 cells; type: cell-based, Zika virus (strain H/PF/2013)
# [15] = system: ZIKV; assay: Viral budding assay in ZIKV-infected U87 cells; type: cell-based, Zika virus (strain H/PF/2013)
# [16] = system: human brain organoids; assay: Viability and structure of ZIKV-infected human cerebral organoids; details: ZIKV 2 × 10^4 particles/organoid, 5 μM, 7 dpi and 10 dpi
# [17] = system: ZIKV; assay: Time course of ZIKV replication in U87 cells (vRNA, infected cells, titer)
# [18] = U87, ZIKV MOI 10, 22 h then 5 μM for 2 h
# [19] = U87, ZIKV MOI 10, 22 h then 10 μM for 2 h
smiles,measurement,setting,value
CCOC(=O)c1cnn(-c2cccc3c2[nH]c(=O)n3C2CCN(C(=O)Nc3ccc(I)cc3)CC2)c1 [TH6744],Viral Titer (ZIKV) (%),"[1]; U87, ZIKV MOI 10, compound 10 µM, 48 h, relative to DMSO",5%
same,"Infected Cells (U87, ZIKV) (%)","[1]; ZIKV MOI 10, compound 10 µM, 48 h, relative to DMSO",88%
same,inhibition at 10 µM,"[1]; U87, ZIKV MOI 10, compound 10 µM, 48 h, relative to DMSO, read-out: Inhibition of ZIKV titer (%)",95%
same,inhibition at 10 µM,"[1]; U87, ZIKV MOI 10, compound 10 µM, 48 h, relative to DMSO, read-out: Inhibition of primary ZIKV infection (%)",12%
same,"Infected Cells (U87, ZIKV)","[1]; screen, U87 cells, ZIKV",88%
same,Viral Titer (ZIKV),"[1]; screen, U87 cells, ZIKV",5%
same,"viability at 48 h, 10 µM","[2]; ZIKV MOI 10, compound 10 µM, 48 h, nuclei count relative to DMSO",105%
same,viability at 10 µM,[2]; screen,105%
same,inhibition at 10 µM,[3]; read-out: Inhibition of HAZV titer (%),90%
same,inhibition at 10 µM,[3]; read-out: Inhibition of primary HAZV infection (%),85%
same,"Infected Cells (SW13, HAZV)","[3]; screen, SW13 cells, HAZV",15%
same,Viral Titer (HAZV),"[3]; screen, SW13 cells, HAZV",10%
same,IC50,"[4]; 24 h, U87, MOI 1, 24 h, read-out: Antiviral on primary infection IC50",> 50 µM
same,IC50,"[4]; 24 h, U87, MOI 1, 24 h, read-out: Antiviral on titer (µM) IC50",> 50 µM
same,IC50,"[4]; 24 h, U87, MOI 10, 24 h, read-out: Antiviral on primary infection IC50",> 50 µM
same,IC50,"[4]; 24 h, U87, MOI 10, 24 h, read-out: Antiviral on titer (µM) IC50",10.3 µM
same,IC50,"[4]; 48 h, U87, MOI 1, 48 h, read-out: Antiviral on primary infection IC50",7.5 µM
same,IC50,"[4]; 48 h, U87, MOI 1, 48 h, read-out: Antiviral on titer (µM) IC50",4.4 µM
same,IC50,"[4]; 48 h, U87, MOI 10, 48 h, read-out: Antiviral on primary infection IC50",12.2 µM
same,IC50,"[4]; 48 h, U87, MOI 10, 48 h, read-out: Antiviral on titer (µM) IC50",9.2 µM
same,EC50,"[4]; ZIKV NS1 staining, read-out: EC50 [μM] Infected cells",7.5 µM
same,EC50,"[4]; end-point dilution assay, read-out: EC50 [μM] Viral titer",4.4 µM
same,IC50,"[5]; 24 h, MOI 1, 24 h, read-out: Antiviral on primary infection IC50",48.4 µM
same,IC50,"[5]; 24 h, MOI 1, 24 h, read-out: Antiviral on titer (µM) IC50",3.9 µM
same,IC50,"[5]; 24 h, MOI 10, 24 h, read-out: Antiviral on primary infection IC50",> 50 µM
same,IC50,"[5]; 24 h, MOI 10, 24 h, read-out: Antiviral on titer (µM) IC50",5.5 µM
same,IC50,"[5]; 48 h, MOI 1, 48 h, read-out: Antiviral on primary infection IC50",2.9 µM
same,IC50,"[5]; 48 h, MOI 1, 48 h, read-out: Antiviral on titer (µM) IC50",3.6 µM
same,IC50,"[5]; 48 h, MOI 10, 48 h, read-out: Antiviral on primary infection IC50",5.8 µM
same,IC50,"[5]; 48 h, MOI 10, 48 h, read-out: Antiviral on titer (µM) IC50",7.2 µM
same,EC50,"[6]; Homo sapiens, U-87 MG, U87, ZIKV MOI 1, 48 h, nuclei count, read-out: EC50 [μM] Living cells",> 50 µM
same,EC50,"[6]; Homo sapiens, U-87 MG, ZIKV, U87, MOI 10, 24 h, read-out: Viability (nuclei count) EC50",> 50 µM
same,EC50,"[6]; Homo sapiens, U-87 MG, ZIKV, U87, MOI 10, 48 h, read-out: Viability (nuclei count) EC50",> 50 µM
same,viability (nuclei count),"[6]; U87, ZIKV MOI 1, 24 hpi",without affecting the viability
same,EC50,"[6]; ZIKV, U87, MOI 1, 24 h, read-out: Viability (nuclei count) EC50",> 50 µM
same,EC50,"[6]; ZIKV, U87, MOI 1, 48 h, read-out: Viability (nuclei count) EC50",> 50 µM
same,EC50,"[7]; Chlorocebus sabaeus, MOI 10, 24 h",> 50 µM
same,EC50,"[7]; Chlorocebus sabaeus, MOI 10, 48 h",> 50 µM
same,EC50,"[7]; MOI 1, 24 h",> 50 µM
same,EC50,"[7]; MOI 1, 48 h",> 50 µM
same,CC50 at 24 h,"[8]; uninfected U87, 24 h",> 50 µM
same,CC50 at 48 h,"[8]; uninfected U87, 48 h",> 50 µM
same,CC50 at 72 h,"[8]; uninfected U87, 72 h",> 50 µM
same,IC50,[9],> 50 µM
same,CC50 at 24 h,[10],> 50 µM
same,CC50 at 48 h,[10],> 50 µM
same,CC50 at 72 h,[10],> 50 µM
same,effect on ZIKV-induced CPE in U87 cells,[11],reversed ZIKV-induced CPE
same,viral titer measured by CPEs,[12],reduced viral titer in a dose-dependent manner
same,ZIKV NS1 intensity in sectioned organoids (primary virus infection),[13]; 7 dpi,marked reduction
same,reduction of ZIKV progeny particles produced by the organoids,"[13]; all timepoints, relative to DMSO",70–80%
same,"reduction on viral titer, entry","[14]; U87, ZIKV MOI 10, 10 μM TH6744, 1 h pre-treatment and during inoculation, titer at 24 hpi",50%
same,"viral titer, post-inoculation","[14]; U87, ZIKV MOI 10, 10 μM TH6744 directly after inoculation for 24 h",pronounced reduction of viral titer
same,"titer reduction, virus budding","[14]; U87, ZIKV MOI 10, 10 μM TH6744 from 22 h after inoculation for 2 h",50%
same,infectivity of pre-budding and post-budding particles,"[15]; U87, ZIKV MOI 10, 2 h TH6744 treatment (5 or 10 μM), dose-dependent",reduced to a similar extent
same,Fraction of infectious ZIKV particles: Extracellular,[15]; [18],94.30%
same,Fraction of infectious ZIKV particles: Intracellular,[15]; [18],5.70%
same,Fraction of infectious ZIKV particles: Extracellular,[15]; [19],93.44%
same,Fraction of infectious ZIKV particles: Intracellular,[15]; [19],6.56%
same,phenotypic rescue (retained structure of organoids),[16],phenotypic rescue
same,ZIKV-infected cells,"[17]; U87, ZIKV MOI 1, 24 hpi",no reduction
same,reduction of extracellular vRNA levels,"[17]; U87, ZIKV MOI 1, 24 hpi",50%
same,reduction of viral titers,"[17]; U87, ZIKV MOI 1, 24 hpi",75%
same,intracellular ZIKV vRNA,"[17]; U87, ZIKV MOI 1, 24 hpi, qPCR",no reduction
same,intracellular ZIKV vRNA levels,"[17]; U87, ZIKV MOI 1, 48 hpi",remained unchanged
same,reduction of number of ZIKV-infected cells,"[17]; U87, ZIKV MOI 1, 48 hpi",65%
same,reduction of titer,"[17]; U87, ZIKV MOI 1, 48 hpi",83%
same,decrease of number of ZIKV-infected cells,"[17]; U87, ZIKV MOI 1, 72 h exposure",40%
same,decrease of viral titer,"[17]; U87, ZIKV MOI 1, 72 h exposure",63%
